Reference: ChEMBL document CHEMBL1141384, “Discovery of a potent, selective, and orally active human epidermal growth factor receptor-2 sheddase inhibitor for the treatment of cancer” (J Med Chem, 2007)
Calls of active or inactive are those of the source. No cut-off for these calls is given here.

Legend:
[1] = target: T1, Disintegrin and metalloproteinase domain-containing protein 10 (Homo sapiens, UniProt O14672); experiment: Inhibition of ADAM10
T1 sequence (O14672 whole entry): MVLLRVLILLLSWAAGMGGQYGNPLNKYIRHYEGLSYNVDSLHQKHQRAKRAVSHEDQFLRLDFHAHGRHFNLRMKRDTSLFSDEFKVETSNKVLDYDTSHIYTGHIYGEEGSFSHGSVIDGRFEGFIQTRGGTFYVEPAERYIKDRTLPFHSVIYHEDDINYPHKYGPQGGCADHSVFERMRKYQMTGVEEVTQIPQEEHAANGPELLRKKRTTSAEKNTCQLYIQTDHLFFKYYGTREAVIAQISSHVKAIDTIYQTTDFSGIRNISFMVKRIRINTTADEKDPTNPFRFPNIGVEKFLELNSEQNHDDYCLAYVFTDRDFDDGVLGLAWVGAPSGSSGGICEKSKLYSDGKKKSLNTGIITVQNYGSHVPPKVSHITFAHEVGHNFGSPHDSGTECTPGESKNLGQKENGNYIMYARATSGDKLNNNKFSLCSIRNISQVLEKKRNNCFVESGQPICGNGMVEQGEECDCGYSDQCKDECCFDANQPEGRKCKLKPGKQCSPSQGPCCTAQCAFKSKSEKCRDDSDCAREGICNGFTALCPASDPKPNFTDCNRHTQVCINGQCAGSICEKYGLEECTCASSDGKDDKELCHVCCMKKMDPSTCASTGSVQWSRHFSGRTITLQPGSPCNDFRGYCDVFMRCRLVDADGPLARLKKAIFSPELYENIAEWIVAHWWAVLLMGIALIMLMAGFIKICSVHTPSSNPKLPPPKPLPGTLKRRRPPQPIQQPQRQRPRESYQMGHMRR

[2] = target: Matrix metalloproteinase-9 (Homo sapiens, UniProt P14780); experiment: Inhibition of MMP9
[3] = target: T2, Interstitial collagenase (Homo sapiens, UniProt P03956); experiment: Inhibition of MMP1
T2 sequence (P03956 whole entry): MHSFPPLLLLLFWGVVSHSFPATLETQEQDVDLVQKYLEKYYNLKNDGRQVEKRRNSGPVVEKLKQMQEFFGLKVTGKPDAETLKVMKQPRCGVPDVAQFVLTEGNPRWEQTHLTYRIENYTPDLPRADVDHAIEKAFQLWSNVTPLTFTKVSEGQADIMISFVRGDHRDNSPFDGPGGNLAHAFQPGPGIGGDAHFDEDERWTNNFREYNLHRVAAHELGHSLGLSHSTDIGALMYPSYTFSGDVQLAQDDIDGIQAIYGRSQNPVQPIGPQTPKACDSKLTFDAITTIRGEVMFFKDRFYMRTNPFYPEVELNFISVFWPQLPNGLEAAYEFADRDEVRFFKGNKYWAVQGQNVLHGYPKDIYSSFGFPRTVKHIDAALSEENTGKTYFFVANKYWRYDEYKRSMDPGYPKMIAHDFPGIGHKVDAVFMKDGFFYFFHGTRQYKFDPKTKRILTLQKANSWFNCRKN

[4] = target: Stromelysin-1 (Homo sapiens, UniProt P08254); experiment: Inhibition of MMP3
[5] = target: 72 kDa type IV collagenase (Homo sapiens, UniProt P08253); experiment: Inhibition of MMP2
[6] = Clearance in murine; type: ADME, organism-based; settings: mouse, in vivo
[7] = AUC (0-24h) in murine at 10 mg/kg, po; type: ADME, organism-based; set-up: time < 24 hr, dose 10 mg/kg, route oral; settings: mouse, in vivo
[8] = Cmax in murine at 10 mg/kg, po; type: ADME, organism-based; set-up: dose 10 mg/kg, route oral; settings: mouse, in vivo
[9] = Protein binding in murine plasma; type: ADME, organism-based; settings: mouse, read-out: PPB (converted)
[10] = target: Receptor tyrosine-protein kinase erbB-2 (Homo sapiens) (UniProt P04626); experiment: Inhibition of Her2 sheddase activity in BT474 cell line; type: functional, cell-based; settings: BT-474
Sequence of Receptor tyrosine-protein kinase erbB-2 (Homo sapiens) (P04626 whole entry): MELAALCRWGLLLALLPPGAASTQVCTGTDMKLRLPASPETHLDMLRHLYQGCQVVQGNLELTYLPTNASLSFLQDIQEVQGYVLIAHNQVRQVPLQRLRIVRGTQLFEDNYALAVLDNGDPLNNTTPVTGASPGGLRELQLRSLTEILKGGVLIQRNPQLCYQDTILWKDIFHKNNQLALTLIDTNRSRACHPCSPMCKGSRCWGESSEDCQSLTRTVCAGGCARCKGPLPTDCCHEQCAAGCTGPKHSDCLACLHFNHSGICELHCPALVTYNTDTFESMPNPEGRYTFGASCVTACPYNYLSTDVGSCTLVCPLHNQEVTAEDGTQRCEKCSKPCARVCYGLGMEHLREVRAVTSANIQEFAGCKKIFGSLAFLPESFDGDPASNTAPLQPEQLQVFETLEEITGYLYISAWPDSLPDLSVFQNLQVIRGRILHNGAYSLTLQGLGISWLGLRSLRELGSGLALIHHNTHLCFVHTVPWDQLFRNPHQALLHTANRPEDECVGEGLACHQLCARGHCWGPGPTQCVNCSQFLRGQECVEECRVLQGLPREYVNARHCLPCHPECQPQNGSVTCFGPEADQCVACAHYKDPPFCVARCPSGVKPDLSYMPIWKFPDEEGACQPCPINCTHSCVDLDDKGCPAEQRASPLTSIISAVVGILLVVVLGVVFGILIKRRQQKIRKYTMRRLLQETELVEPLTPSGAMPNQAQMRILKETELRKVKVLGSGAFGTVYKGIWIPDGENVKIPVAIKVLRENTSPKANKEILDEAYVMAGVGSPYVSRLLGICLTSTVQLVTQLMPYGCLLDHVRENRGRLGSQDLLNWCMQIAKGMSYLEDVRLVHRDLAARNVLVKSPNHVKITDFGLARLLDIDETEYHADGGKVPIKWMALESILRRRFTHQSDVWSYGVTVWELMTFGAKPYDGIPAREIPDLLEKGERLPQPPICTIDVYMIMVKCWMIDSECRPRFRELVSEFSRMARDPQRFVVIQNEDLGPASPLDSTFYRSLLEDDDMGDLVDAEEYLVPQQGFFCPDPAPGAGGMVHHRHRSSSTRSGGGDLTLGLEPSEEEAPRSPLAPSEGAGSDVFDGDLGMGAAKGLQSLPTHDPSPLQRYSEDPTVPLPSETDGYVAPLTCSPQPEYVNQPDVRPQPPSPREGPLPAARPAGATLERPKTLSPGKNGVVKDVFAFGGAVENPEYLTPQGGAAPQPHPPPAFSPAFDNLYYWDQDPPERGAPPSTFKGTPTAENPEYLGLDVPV

Sequence of Stromelysin-1 (P08254 whole entry): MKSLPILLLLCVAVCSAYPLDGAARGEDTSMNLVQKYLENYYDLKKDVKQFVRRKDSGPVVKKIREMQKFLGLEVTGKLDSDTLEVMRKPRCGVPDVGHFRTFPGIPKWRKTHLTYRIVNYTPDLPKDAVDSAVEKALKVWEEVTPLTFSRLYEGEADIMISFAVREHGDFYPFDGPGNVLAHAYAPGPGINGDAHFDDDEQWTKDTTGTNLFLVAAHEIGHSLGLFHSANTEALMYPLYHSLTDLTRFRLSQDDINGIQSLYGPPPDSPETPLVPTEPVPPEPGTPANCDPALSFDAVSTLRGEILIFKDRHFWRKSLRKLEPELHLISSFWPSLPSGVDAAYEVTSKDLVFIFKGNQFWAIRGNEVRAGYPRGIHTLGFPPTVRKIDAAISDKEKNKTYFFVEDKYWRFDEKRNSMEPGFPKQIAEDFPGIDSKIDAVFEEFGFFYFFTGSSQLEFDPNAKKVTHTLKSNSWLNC
Sequence of Matrix metalloproteinase-9 (P14780 whole entry): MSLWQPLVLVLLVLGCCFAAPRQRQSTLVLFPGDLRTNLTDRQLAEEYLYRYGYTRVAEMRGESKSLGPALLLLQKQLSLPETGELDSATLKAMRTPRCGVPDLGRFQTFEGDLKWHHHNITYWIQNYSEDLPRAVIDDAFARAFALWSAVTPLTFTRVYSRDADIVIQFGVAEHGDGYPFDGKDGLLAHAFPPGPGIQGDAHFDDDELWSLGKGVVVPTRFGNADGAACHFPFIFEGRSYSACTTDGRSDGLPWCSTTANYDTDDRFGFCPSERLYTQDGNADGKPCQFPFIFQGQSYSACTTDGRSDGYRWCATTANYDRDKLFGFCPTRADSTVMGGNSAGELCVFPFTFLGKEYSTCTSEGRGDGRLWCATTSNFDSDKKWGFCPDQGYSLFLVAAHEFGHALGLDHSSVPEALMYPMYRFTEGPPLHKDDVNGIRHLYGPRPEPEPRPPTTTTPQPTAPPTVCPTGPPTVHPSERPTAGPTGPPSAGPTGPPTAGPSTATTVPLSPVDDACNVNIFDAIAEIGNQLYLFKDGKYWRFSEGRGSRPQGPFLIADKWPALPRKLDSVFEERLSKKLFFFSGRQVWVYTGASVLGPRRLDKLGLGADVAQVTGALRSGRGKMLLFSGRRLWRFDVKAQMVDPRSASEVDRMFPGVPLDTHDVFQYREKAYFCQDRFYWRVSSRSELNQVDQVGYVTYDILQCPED
Sequence of 72 kDa type IV collagenase (P08253 whole entry): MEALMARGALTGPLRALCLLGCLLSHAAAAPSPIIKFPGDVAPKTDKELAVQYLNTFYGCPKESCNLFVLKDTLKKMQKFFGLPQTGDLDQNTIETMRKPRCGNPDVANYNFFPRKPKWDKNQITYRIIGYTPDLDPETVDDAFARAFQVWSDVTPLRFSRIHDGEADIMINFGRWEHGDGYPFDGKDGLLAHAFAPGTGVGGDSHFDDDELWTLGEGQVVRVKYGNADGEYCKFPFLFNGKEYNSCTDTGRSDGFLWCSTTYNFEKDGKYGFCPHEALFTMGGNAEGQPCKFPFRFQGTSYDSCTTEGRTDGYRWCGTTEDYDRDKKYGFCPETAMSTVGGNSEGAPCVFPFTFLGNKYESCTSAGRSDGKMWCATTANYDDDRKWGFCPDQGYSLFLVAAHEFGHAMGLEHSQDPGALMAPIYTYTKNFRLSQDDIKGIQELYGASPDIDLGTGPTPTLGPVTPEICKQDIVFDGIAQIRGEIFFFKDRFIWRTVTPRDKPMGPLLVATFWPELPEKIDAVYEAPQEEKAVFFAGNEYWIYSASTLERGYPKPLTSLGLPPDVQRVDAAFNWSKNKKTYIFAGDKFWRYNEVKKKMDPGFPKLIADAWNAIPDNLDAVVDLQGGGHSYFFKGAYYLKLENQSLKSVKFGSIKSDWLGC

IC50 [1]	IC50 [2]	IC50 [3]	IC50 [4]	IC50 [5]	clearance [6]	AUC(0-t) at 24 h [7]	Cmax [8]	fraction unbound [9]	Activity [10]	Structure (SMILES)
0.077 µM	> 5 µM	> 5 µM	> 1 µM	0.064 µM	–	–	–	–	–	CN1CC2(CC2)C[C@H](C(=O)NO)[C@H]1C(=O)N1CC=C(c2ccccc2)CC1
–	0.428 µM	> 5 µM	4 µM	0.039 µM	6.67 mL/min/kg	3.9 µM·h	7.7 µM	0.7	–	COC(=O)N1CC2(CC2)C[C@H](C(=O)NO)[C@H]1C(=O)N1CC=C(c2ccccc2)CC1
0.32 µM	> 5 µM	> 5 µM	> 5 µM	0.45 µM	–	–	–	–	–	O=C(NO)[C@H]1CC2(CC2)CN[C@@H]1C(=O)N1CCC(c2ccccc2)CC1
0.13 µM	> 5 µM	> 5 µM	> 5 µM	> 5 µM	–	–	–	–	–	Cc1cc([N+](=O)[O-])ccc1C1=CCN(C(=O)[C@H]2NCC3(CC3)C[C@@H]2C(=O)NO)CC1
0.33 µM	> 5 µM	> 5 µM	> 5 µM	0.35 µM	–	–	–	–	–	O=C(NO)[C@H]1CC2(CC2)CN[C@@H]1C(=O)N1CCN2c3ccccc3CC2C1 (stereo partly specified)
–	> 5 µM	> 5 µM	> 1 µM	> 1 µM	–	–	–	–	inactive	CCC(C)NC(=O)[C@@H]1[C@@H](C(=O)NO)CC2(CC2)CN1C (stereo partly specified)
–	0.113 µM	3.9 µM	1.2 µM	0.005 µM	15 mL/min/kg	0.35 µM·h	0.58 µM	0.4	–	O=C(NO)[C@H]1CC2(CC2)CN[C@@H]1C(=O)N1CC=C(c2ccccc2)CC1
–	> 3 µM	> 5 µM	> 3 µM	0.96 µM	–	–	–	–	–	O=C(NO)[C@H]1CC2(CC2)CN[C@@H]1C(=O)N1CC[C@H](c2ccccc2)C1
0.31 µM	> 5 µM	> 5 µM	> 5 µM	0.15 µM	–	–	–	–	–	CN1CC2(CC2)C[C@H](C(=O)NO)[C@H]1C(=O)N1CCN(c2ccccc2)CC1
> 5 µM	> 5 µM	> 5 µM	> 5 µM	> 5 µM	–	–	–	–	inactive	Cc1ccccc1N1CCN(C(=O)[C@H]2NCC3(CC3)C[C@@H]2C(=O)NO)CC1
0.72 µM	> 5 µM	> 5 µM	> 5 µM	> 5 µM	–	–	–	–	–	CC1=C(c2ccccc2)CCN(C(=O)[C@H]2NCC3(CC3)C[C@@H]2C(=O)NO)C1
0.48 µM	–	–	–	–	–	–	–	–	–	O=C(NO)[C@H]1CCCN[C@@H]1C(=O)N1CC[C@H](c2ccccc2)C1
0.023 µM	0.077 µM	2.5 µM	0.45 µM	0.013 µM	–	–	–	–	–	O=C(NO)[C@H]1CC2(CC2)CN[C@@H]1C(=O)N1CC=C(c2ccccc2)C1
0.11 µM	> 5 µM	> 5 µM	> 1 µM	> 1 µM	–	–	–	–	–	Cc1cc([N+](=O)[O-])ccc1N1CCN(C(=O)[C@H]2NCC3(CC3)C[C@@H]2C(=O)NO)CC1
–	0.65 µM	> 5 µM	> 5 µM	0.2 µM	–	–	–	–	–	O=C(NO)[C@H]1CC2(CC2)CN[C@@H]1C(=O)N1CCN(c2ccccc2)CC1
